Source: PubChem BioAssay AID1963985 (Molecular Pharmacology Branch, DTP, NCI, 2024)

System: 252836-082-R-J2-PDC tumor spheroids, viability
Assay: Anticancer human tumor 252836-082-R-J2-PDC patient-derived head and neck squamous cell carcinoma cell line growth inhibition [PI3K]
Conditions: spheroids with HUVEC and MSC; for IC50: curve of first compound; for viability, T/C: stronger effect = lower value
In short: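 Targeted small molecules plus PI3K inhibitors, half-log dose series from Cmax (default top 10 microM), were applied to heterotypic spheroids of cancer cells with HUVEC and MSCs. Viability indicated growth inhibition.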

[1] = second compound 0.0316 µM, first compound 0.000316 µM
[2] = second compound 0.0316 µM, first compound 0.001 µM
[3] = second compound 0.0316 µM, first compound 0.00316 µM
[4] = second compound 0.0316 µM, first compound 0.01 µM
[5] = second compound 0.0316 µM, first compound 0.0316 µM
[6] = second compound 0.0316 µM, first compound 0.1 µM
[7] = second compound 0.1 µM, first compound 0.000316 µM
[8] = second compound 0.1 µM, first compound 0.001 µM
[9] = second compound 0.1 µM, first compound 0.00316 µM
[10] = second compound 0.1 µM, first compound 0.01 µM
[11] = second compound 0.1 µM, first compound 0.0316 µM
[12] = second compound 0.1 µM, first compound 0.1 µM
[13] = second compound 0.316 µM, first compound 0.000316 µM
[14] = second compound 0.316 µM, first compound 0.001 µM
[15] = second compound 0.316 µM, first compound 0.00316 µM
[16] = second compound 0.316 µM, first compound 0.01 µM
[17] = second compound 0.316 µM, first compound 0.0316 µM
[18] = second compound 0.316 µM, first compound 0.1 µM
[19] = second compound 1 µM, first compound 0.000316 µM
[20] = second compound 1 µM, first compound 0.001 µM
[21] = second compound 1 µM, first compound 0.00316 µM
[22] = second compound 1 µM, first compound 0.01 µM
[23] = second compound 1 µM, first compound 0.0316 µM
[24] = second compound 1 µM, first compound 0.1 µM
[25] = second compound 3.16 µM, first compound 0.000316 µM
[26] = second compound 3.16 µM, first compound 0.001 µM
[27] = second compound 3.16 µM, first compound 0.00316 µM
[28] = second compound 3.16 µM, first compound 0.01 µM
[29] = second compound 3.16 µM, first compound 0.0316 µM
[30] = second compound 3.16 µM, first compound 0.1 µM
[31] = second compound 10 µM, first compound 0.000316 µM
[32] = second compound 10 µM, first compound 0.001 µM
[33] = second compound 10 µM, first compound 0.00316 µM
[34] = second compound 10 µM, first compound 0.01 µM
[35] = second compound 10 µM, first compound 0.0316 µM
[36] = second compound 10 µM, first compound 0.1 µM
[37] = second compound 0.0316 µM, first compound 0.316 µM
[38] = second compound 0.0316 µM, first compound 1 µM
[39] = second compound 0.0316 µM, first compound 3.16 µM
[40] = second compound 0.0316 µM, first compound 10 µM
[41] = second compound 0.1 µM, first compound 0.316 µM
[42] = second compound 0.1 µM, first compound 1 µM
[43] = second compound 0.1 µM, first compound 3.16 µM
[44] = second compound 0.1 µM, first compound 10 µM
[45] = second compound 0.316 µM, first compound 0.316 µM
[46] = second compound 0.316 µM, first compound 1 µM
[47] = second compound 0.316 µM, first compound 3.16 µM
[48] = second compound 0.316 µM, first compound 10 µM
[49] = second compound 1 µM, first compound 0.316 µM
[50] = second compound 1 µM, first compound 1 µM
[51] = second compound 1 µM, first compound 3.16 µM
[52] = second compound 1 µM, first compound 10 µM
[53] = second compound 3.16 µM, first compound 0.316 µM
[54] = second compound 3.16 µM, first compound 1 µM
[55] = second compound 3.16 µM, first compound 3.16 µM
[56] = second compound 3.16 µM, first compound 10 µM
[57] = second compound 10 µM, first compound 0.316 µM
[58] = second compound 10 µM, first compound 1 µM
[59] = second compound 10 µM, first compound 3.16 µM
[60] = second compound 10 µM, first compound 10 µM
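Also: spheroids exposed to agents for seven days before readout.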
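For viability, T/C in this document: percent of vehicle DMSO control viability so 100% = untreated growth.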

`CC(=O)c1c(C)c2cnc(Nc3ccc(N4CCNCC4)cn3)nc2n(C2CCCC2)c1=O` + CC(Nc1ncnc2nc[nH]c12)c1cc2cccc(Cl)c2c(=O)n1-c1ccccc1 was tested, and the IC50 (second compound 0.0316 µM) was greater than 100 nM, the IC50 (second compound 0.1 µM) was greater than 100 nM and the IC50 (second compound 0.316 µM) was greater than 100 nM. The IC50 (second compound 1 µM) was greater than 100 nM, the IC50 (second compound 3.16 µM) was greater than 100 nM and the IC50 (second compound 10 µM) was greater than 100 nM. It also gave a viability, T/C [1] of 99.4%, a viability, T/C [2] of 92.6% and a viability, T/C [3] of 93%. It also gave a viability, T/C [4] of 89.1%, a viability, T/C [5] of 91.8% and a viability, T/C [6] of 93.2%. It also gave a viability, T/C [7] of 105%, a viability, T/C [8] of 89.6% and a viability, T/C [9] of 76.6%. The viability, T/C [10] was 83.3%, the viability, T/C [11] was 83% and the viability, T/C [12] was 75.4%. The viability, T/C [13] was 114%, the viability, T/C [14] was 91.4% and the viability, T/C [15] was 86.9%. It also gave a viability, T/C [16] of 93.7%, a viability, T/C [17] of 88.7% and a viability, T/C [18] of 96.6%. The viability, T/C [19] was 81.9%, the viability, T/C [20] was 72.4% and the viability, T/C [21] was 76.8%. It also gave a viability, T/C [22] of 93.9%, a viability, T/C [23] of 79.8% and a viability, T/C [24] of 79.2%. It also gave a viability, T/C [25] of 91.6%, a viability, T/C [26] of 87.9% and a viability, T/C [27] of 66.1%. For the same compound, the viability, T/C [28] was 74.2%, the viability, T/C [29] was 73.7% and the viability, T/C [30] was 71.6%. It also gave a viability, T/C [31] of 57.5%, a viability, T/C [32] of 56.3% and a viability, T/C [33] of 69.2%. The viability, T/C [34] was 61.1%, the viability, T/C [35] was 71.4% and the viability, T/C [36] was 60.6%.
Compound `CC(C)n1nc(-c2ccc3oc(N)nc3c2)c2c(N)ncnc21` + CC(Nc1ncnc2nc[nH]c12)c1cc2cccc(Cl)c2c(=O)n1-c1ccccc1 has an IC50 (second compound 0.0316 µM) of 47.5 nM, an IC50 (second compound 0.1 µM) of 37.1 nM and an IC50 (second compound 0.316 µM) of 34.1 nM. The IC50 (second compound 1 µM) was 32.5 nM, the IC50 (second compound 3.16 µM) was 21.5 nM and the IC50 (second compound 10 µM) was 11.1 nM. The viability, T/C [1] was 91.7%, the viability, T/C [2] was 93.5% and the viability, T/C [3] was 89.5%. For the same compound, the viability, T/C [4] was 95.5%, the viability, T/C [5] was 65.6% and the viability, T/C [6] was 21.7%. For the same compound, the viability, T/C [7] was 94.1%, the viability, T/C [8] was 97.9% and the viability, T/C [9] was 71.1%. For the same compound, the viability, T/C [10] was 77.5%, the viability, T/C [11] was 55.1% and the viability, T/C [12] was 24.2%. It also gave a viability, T/C [13] of 95.3%, a viability, T/C [14] of 79% and a viability, T/C [15] of 83.5%. For the same compound, the viability, T/C [16] was 87.4%, the viability, T/C [17] was 52% and the viability, T/C [18] was 22.4%. The viability, T/C [19] was 96%, the viability, T/C [20] was 88.6% and the viability, T/C [21] was 83.5%. It also gave a viability, T/C [22] of 69.8%, a viability, T/C [23] of 50.8% and a viability, T/C [24] of 22.7%. For the same compound, the viability, T/C [25] was 79.2%, the viability, T/C [26] was 76.9% and the viability, T/C [27] was 78.5%. For the same compound, the viability, T/C [28] was 64.2%, the viability, T/C [29] was 42.8% and the viability, T/C [30] was 22%. The viability, T/C [31] was 74.1%, the viability, T/C [32] was 60% and the viability, T/C [33] was 68.1%. The viability, T/C [34] was 47%, the viability, T/C [35] was 39.4% and the viability, T/C [36] was 18%.
Compound `CC1(C)CCC(CN2CCN(c3ccc(C(=O)NS(=O)(=O)c4ccc(NCC5CCOCC5)c([N+](=O)[O-])c4)c(Oc4cnc5[nH]ccc5c4)c3)CC2)=C(c2ccc(Cl)cc2)C1` + CC(Nc1ncnc2nc[nH]c12)c1cc2cccc(Cl)c2c(=O)n1-c1ccccc1 has an IC50 (second compound 0.0316 µM) greater than 10000 nM, an IC50 (second compound 0.1 µM) greater than 10000 nM and an IC50 (second compound 0.316 µM) greater than 10000 nM. For the same compound, the IC50 (second compound 1 µM) was greater than 10000 nM, the IC50 (second compound 3.16 µM) was greater than 10000 nM and the IC50 (second compound 10 µM) was greater than 10000 nM. For the same compound, the viability, T/C [5] was 96.7%, the viability, T/C [6] was 88.3% and the viability, T/C [37] was 95.9%. The viability, T/C [38] was 93%, the viability, T/C [39] was 87.3% and the viability, T/C [40] was 81.8%. It also gave a viability, T/C [11] of 102%, a viability, T/C [12] of 77.1% and a viability, T/C [41] of 79%. It also gave a viability, T/C [42] of 99.1%, a viability, T/C [43] of 80.8% and a viability, T/C [44] of 86.7%. The viability, T/C [17] was 92.5%, the viability, T/C [18] was 100% and the viability, T/C [45] was 102%. The viability, T/C [46] was 106%, the viability, T/C [47] was 88.3% and the viability, T/C [48] was 81.6%. The viability, T/C [23] was 81%, the viability, T/C [24] was 89.8% and the viability, T/C [49] was 77.5%. It also gave a viability, T/C [50] of 93.8%, a viability, T/C [51] of 92.1% and a viability, T/C [52] of 96%. The viability, T/C [29] was 80.5%, the viability, T/C [30] was 84% and the viability, T/C [53] was 71.8%. The viability, T/C [54] was 81.2%, the viability, T/C [55] was 67% and the viability, T/C [56] was 65.7%. For the same compound, the viability, T/C [35] was 61%, the viability, T/C [36] was 64.3% and the viability, T/C [57] was 68.6%. The viability, T/C [58] was 65.8%, the viability, T/C [59] was 50.4% and the viability, T/C [60] was 55.1%.
In the case of `CCCS(=O)(=O)Nc1ccc(F)c(C(=O)c2c[nH]c3ncc(-c4ccc(Cl)cc4)cc23)c1F` + CC(Nc1ncnc2nc[nH]c12)c1cc2cccc(Cl)c2c(=O)n1-c1ccccc1, the IC50 (second compound 0.0316 µM) is reported as 5060 nM, the IC50 (second compound 0.1 µM) is reported as 5500 nM and the IC50 (second compound 0.316 µM) is reported as 5320 nM. The IC50 (second compound 1 µM) was 4900 nM, the IC50 (second compound 3.16 µM) was 4830 nM and the IC50 (second compound 10 µM) was 4090 nM. The viability, T/C [5] was 101%, the viability, T/C [6] was 93.7% and the viability, T/C [37] was 109%. The viability, T/C [38] was 92.9%, the viability, T/C [39] was 78.7% and the viability, T/C [40] was 8.82%. For the same compound, the viability, T/C [11] was 99.6%, the viability, T/C [12] was 92.9% and the viability, T/C [41] was 109%. It also gave a viability, T/C [42] of 91.9%, a viability, T/C [43] of 88.6% and a viability, T/C [44] of 8.07%. For the same compound, the viability, T/C [17] was 98.8%, the viability, T/C [18] was 84% and the viability, T/C [45] was 82.7%. It also gave a viability, T/C [46] of 90.4%, a viability, T/C [47] of 83.1% and a viability, T/C [48] of 9.77%. It also gave a viability, T/C [23] of 89.2%, a viability, T/C [24] of 90.2% and a viability, T/C [49] of 95.6%. It also gave a viability, T/C [50] of 104%, a viability, T/C [51] of 76.5% and a viability, T/C [52] of 7.1%. For the same compound, the viability, T/C [29] was 86.7%, the viability, T/C [30] was 87.5% and the viability, T/C [53] was 88.4%. For the same compound, the viability, T/C [54] was 91.5%, the viability, T/C [55] was 72.7% and the viability, T/C [56] was 11.2%. For the same compound, the viability, T/C [35] was 71.7%, the viability, T/C [36] was 73.2% and the viability, T/C [57] was 68.4%. The viability, T/C [58] was 65%, the viability, T/C [59] was 62.3% and the viability, T/C [60] was 10.3%.
